# Data as given in US6797807B1, “Compounds and methods for cancer therapy” (Adherex Technologies, Inc., priority 1997, dated 2004).
# What was measured:
# Adult rats = test: Miles assay for vascular permeability (Evans blue); assay type: in vivo; conditions: rat, 100 μg/ml peptide subdermal, OD at 620 nm; compared with PBS and the N-acetyl/C-amide peptides; FIG. 6, FIG. 8
# Method: The ability of an agent to modulate cell adhesion may generally be evaluated in vivo by assessing the effect on vascular permeability utilizing the Miles assay (McClure et al., J. Pharmacological & Toxicological Methods 32:49-52, 1994). Briefly, a candidate modulating agent may be dissolved in phosphate buffered saline (PBS) at a concentration of 100 μg/ml. Adult rats may be given 100 μl subdermal injections of each peptide solution into their shaved backs, followed 15 minutes later by a single 250 μl injection of 1% Evans blue dissolved in PBS into their tail veins. The subdermal injection sites may be visually monitored for the appearance of blue dye. Once the dye appears (about 15 minutes after injection), each subdermal injection site may be excised, weighed, and placed in 1 ml dimethylformamide for 24 hours to extract the dye. The optical density of the dye extracts may then be determined at 620 nm. In general, the injection of 0.1 ml of modulating agent (at a concentration of 0.1 mg/ml) into the backs of rats causes an increase of dye accumulation at the injection sites of at least 50%, as compared to dye accumulation at sites into which PBS has been injected.
# The ability of cyclic and linear peptides to increase vascular permeability was assessed utilizing the Miles assay (McClure et al., J. Pharmacological & Toxicological Meth. 32:49-521994). The peptides were dissolved in phosphate buffered saline (PBS) at a concentration of 100 μg/ml. Adult rats were given 100 μl subdermal injections of each peptide solution into their shaved backs, followed 15 minutes later by a single 250 μl injection of 1% Evans blue dissolved in PBS into their tail veins. The subdermal injection sites were visually monitored for the appearance of blue dye. Once the dye appeared (15 minutes after injection), each subdermal injection site was excised, weighed, and placed in 1 ml dimethylformamide for 24 hours to extract the dye. The optical density of the dye extracts was determined at 620 nm. […]
# [1] = tested on: Human neutrophils (polymorphonuclear leukocytes, PMN) on HUVEC monolayers; test: Neutrophil (PMN) transendothelial migration across HUVEC monolayers with fMLP; assay type: cell-based; conditions: 10^-7 M fMLP, vs control with fMLP, FIGS. 10-11
# Method: A further assay for evaluating modulating agent activity involves determining an effect of a candidate agent on neutrophil migration on endothelial cells. Within such assays, endothelial cells (e.g., HUVEC) may be harvested and cultured using standard techniques. Cells are grown to confluence on 8.0 μm pore cell culture inserts (Falcon, Franklin Lake, N.J.) essentially as described by Ohno et al., Inflammation 21(3):313-24, 1997. Radiolabeled human neutrophils (polymorphonuclear leukocytes, PMN) are added to the apical surface of HUVEC monolayers and allowed to migrate. Migration assays are generally performed in the presence of 10^−7 M N-formyl-methionyl-leucyl-phenylalanine (fMLP), a chemoattractant that causes the leukocytes to undergo diapedesis. PMN migration may be quantitated as follows: [formula]
# Human umbilical vein endothelial cells (HUVEC) were harvested from umbilical cords by 0.2% collagenase treatment essentially as described by Yoshida et al., Am. […]
# For neutrophil diapedesis experiments, HUVEC were grown to confluence on 8.0 μm pore cell culture inserts (Falcon, Franklin Lake, N.J.) essentially as described by Ohno et al., inflammation 21(3):313-24, 1997. […] The cells were then washed twice with cold phosphate-buffered saline (PBS), spun at 250 g for 8 minutes to remove unincorporated radioactivity and resuspended in PBS. […]
# PMN migration was quantitated as follows: [formula]
# HUVEC = test: Immunofluorescence analysis of occludin in HUVEC; assay type: cell-based, human; conditions: 200 μg/mL peptide vs vehicle; FIG. 12B
# Method: For immunofluorescence analysis of occludin, HUVEC grown on glass coverslips were treated with vehicle (FIG. 12A) or 200 μg/mL peptide 76 (FIG. 12B). Cells were fixed with methanol and acetone and stained for occludin (Kevil et al., Microcirculation 5:197-210, 1998). Immunofluorescent staining was performed with anti-occludin polyclonal antibody (Zymed, San Francisco, Calif. used at a concentration of 4 μg/ml) and Cy3-conjugated goat anti-rabbit secondary Ab (Jackson Labs, Westgrove, Pa., used at a 1:250 dilution), and analyzed by fluorescence microscope. […] The photographs shown are representative of at least 20 different fields observed in each experiment and of three independent experiments. Bar=25 μm.
substance,measurement,setting,value
"H-CLYHYC-OH (also: cyclic, kind not given here) [Peptide 5]",optical densities of dimethylformamide dye extracts from excised injection sites,Adult rats,more dye was extracted
same,fMLP-stimulated neutrophil transendothelial migration,[1],increase fMLP-stimulated transendothelial migration
same,occludin staining and intercellular gaps in HUVEC,HUVEC,gaps between adjacent endothelial cells and the lack of junctional proteins at these gaps
